One experiment is described as follows: cells. As to conditions: Homo sapiens, MCF-10A, read-out: MCF10A IC50.
The next experiment deals with H1047R PIK3CA enzyme (Homo sapiens, UniProt P42336, H1047R). The experiment can be described thus: ADP-Glo Biochemical PIK3CA Kinase Assay. Background: ADP-Glo turns the ADP formed in a reaction into a luminescent signal.

The structures appear in SMILES notation.

Sequence of H1047R PIK3CA enzyme (P42336 whole entry H1047R): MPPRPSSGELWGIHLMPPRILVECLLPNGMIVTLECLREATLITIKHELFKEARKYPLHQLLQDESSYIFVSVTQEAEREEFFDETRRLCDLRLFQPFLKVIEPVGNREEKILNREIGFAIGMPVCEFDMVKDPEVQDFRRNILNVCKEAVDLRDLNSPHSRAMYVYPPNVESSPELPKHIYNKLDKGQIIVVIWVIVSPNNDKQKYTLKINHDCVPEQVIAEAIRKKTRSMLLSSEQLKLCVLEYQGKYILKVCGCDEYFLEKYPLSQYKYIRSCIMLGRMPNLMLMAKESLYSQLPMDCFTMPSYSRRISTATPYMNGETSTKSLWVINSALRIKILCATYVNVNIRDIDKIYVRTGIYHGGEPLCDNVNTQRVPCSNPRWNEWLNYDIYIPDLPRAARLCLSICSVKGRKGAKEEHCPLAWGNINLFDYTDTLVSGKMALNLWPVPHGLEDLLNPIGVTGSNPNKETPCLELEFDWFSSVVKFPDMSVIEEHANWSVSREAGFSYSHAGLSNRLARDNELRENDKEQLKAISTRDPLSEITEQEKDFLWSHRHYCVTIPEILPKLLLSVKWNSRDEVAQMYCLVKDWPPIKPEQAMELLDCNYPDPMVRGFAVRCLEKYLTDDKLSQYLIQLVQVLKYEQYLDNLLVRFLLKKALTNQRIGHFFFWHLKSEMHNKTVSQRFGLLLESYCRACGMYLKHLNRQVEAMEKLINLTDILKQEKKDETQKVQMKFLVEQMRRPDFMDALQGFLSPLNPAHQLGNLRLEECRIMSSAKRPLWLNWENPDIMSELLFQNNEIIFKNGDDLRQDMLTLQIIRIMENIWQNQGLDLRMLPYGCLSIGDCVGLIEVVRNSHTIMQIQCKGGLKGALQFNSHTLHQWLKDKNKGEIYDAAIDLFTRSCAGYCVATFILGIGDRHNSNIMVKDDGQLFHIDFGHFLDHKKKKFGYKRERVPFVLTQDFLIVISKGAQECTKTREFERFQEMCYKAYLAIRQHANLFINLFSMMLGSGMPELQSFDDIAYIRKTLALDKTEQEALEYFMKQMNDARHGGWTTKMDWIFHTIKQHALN
Sequence of H1047R PIK3CA enzyme (P27986 whole entry partner): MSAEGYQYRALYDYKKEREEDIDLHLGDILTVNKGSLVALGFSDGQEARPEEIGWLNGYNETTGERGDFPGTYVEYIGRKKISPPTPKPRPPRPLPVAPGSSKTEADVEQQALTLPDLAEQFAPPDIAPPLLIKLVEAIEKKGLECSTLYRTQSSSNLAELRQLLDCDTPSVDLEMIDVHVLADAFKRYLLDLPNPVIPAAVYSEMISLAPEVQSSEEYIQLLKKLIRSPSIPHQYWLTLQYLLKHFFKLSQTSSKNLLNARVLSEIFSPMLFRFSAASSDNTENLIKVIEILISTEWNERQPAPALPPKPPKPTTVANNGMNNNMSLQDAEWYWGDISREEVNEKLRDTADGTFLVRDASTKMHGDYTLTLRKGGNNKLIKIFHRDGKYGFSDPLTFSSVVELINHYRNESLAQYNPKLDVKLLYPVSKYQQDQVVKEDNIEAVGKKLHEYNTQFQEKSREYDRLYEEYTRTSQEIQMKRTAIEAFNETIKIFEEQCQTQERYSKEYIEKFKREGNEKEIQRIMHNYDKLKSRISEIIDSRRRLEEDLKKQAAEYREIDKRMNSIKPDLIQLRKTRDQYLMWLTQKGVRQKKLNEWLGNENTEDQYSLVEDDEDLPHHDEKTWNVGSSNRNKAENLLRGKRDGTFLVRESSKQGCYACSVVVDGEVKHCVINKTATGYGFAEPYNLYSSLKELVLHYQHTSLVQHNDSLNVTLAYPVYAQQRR

Broadly, the IC50 is the concentration at which inhibition is half-maximal. For the compound `O=C1N[C@H](c2cc(F)ccc2Cl)c2c(NC(=O)N3C[C@@](O)(C(F)(F)F)c4cc(F)ccc43)cc(Cl)nc21` (single isomer, unassigned) [Compound I-2703], the 50% inhibitory concentration (IC50) in the experiment “cells” is under 1000 nM; against H1047R PIK3CA enzyme it was at most 100 nM.

Regarding `O=C1N[C@@H](c2cc(F)ccc2Cl)c2c(NC(=O)N3C[C@](O)(C(F)(F)F)c4cc(F)ccc43)cc(Cl)nc21` (single isomer, unassigned) [Compound I-2704], the figures for the IC50 in the experiment “cells” and against H1047R PIK3CA enzyme were under 1000 nM and at most 100 nM, respectively.

Take `O=C(Nc1cc(-c2ccncc2F)cc2c1[C@@H](c1cc(F)ccc1Cl)NC2=O)c1cc(F)cc(C(F)(F)F)c1` (stereo in doubt) [Compound I-986]: the IC50 was under 1000 nM in the experiment “cells” and at most 100 nM against H1047R PIK3CA enzyme.

For the compound `Cn1ccc(-c2cc(NC(=O)c3cc(F)cc(C(F)(F)F)c3)c3c(c2)C(=O)N[C@@H]3c2cc(F)ccc2Cl)cc1=O` (stereo in doubt) [Compound I-1002], the IC50 in the experiment “cells” is under 1000 nM; at H1047R PIK3CA enzyme it was at most 100 nM.

For the compound `Nc1ncc(-c2cc(NC(=O)c3cc(F)cc(C(F)(F)F)c3)c3c(c2)C(=O)N[C@@H]3c2cc(F)ccc2Cl)cn1` (stereo in doubt) [Compound I-1003], the IC50 in “cells” is under 1000 nM; against H1047R PIK3CA enzyme, at most 100 nM.

`COc1cccc(-c2cc(NC(=O)c3cc(F)cc(C(F)(F)F)c3)c3c(c2)C(=O)N[C@H]3c2cc(F)ccc2Cl)n1` (stereo in doubt) [Compound I-1006]: the results for the IC50 in “cells” and against H1047R PIK3CA enzyme were under 1000 nM and at most 100 nM, respectively.

Take `O=C(Nc1cc(-c2cccnc2)cc2c1[C@@H](c1cc(F)ccc1Cl)NC2=O)c1cc(F)cc(C(F)(F)F)c1` (stereo in doubt) [Compound I-1009]: the IC50 in “cells” is under 1000 nM; at H1047R PIK3CA enzyme it was at most 100 nM.

For the compound `Cc1cnccc1-c1cc(NC(=O)c2cc(F)cc(C(F)(F)F)c2)c2c(c1)C(=O)N[C@H]2c1cc(F)ccc1Cl` (stereo in doubt) [Compound I-1010], the IC50 was under 1000 nM in “cells” and at most 100 nM against H1047R PIK3CA enzyme.

Turning to `O=C(Nc1cc(-c2ccc3ncnn3c2)cc2c1[C@H](c1cc(F)ccc1C(F)F)NC2=O)c1cc(F)cc(C(F)(F)F)c1` (stereo in doubt) [Compound I-1056], the results for the IC50 in “cells” and at H1047R PIK3CA enzyme were under 1000 nM and at most 100 nM, respectively.

Regarding `O=C(Nc1cc(-c2ccc3ncnn3c2)cc2c1[C@H](c1cc(F)cc(F)c1Cl)NC2=O)c1cc(F)cc(C(F)(F)F)c1` (stereo in doubt) [Compound I-1062], the half-maximal inhibitory concentration (IC50) is under 1000 nM in the experiment “cells” and at most 100 nM against H1047R PIK3CA enzyme.

Consider `O=C(Nc1cc(-c2ccc3ncnn3c2)cc2c1[C@H](c1cc(F)ccc1Cl)NC2=O)c1cc(F)cc(OC(F)(F)F)c1` (stereo in doubt) [Compound I-1111], for which the IC50 in “cells” was under 1000 nM; on H1047R PIK3CA enzyme, at most 100 nM.

With `O=C1N[C@@H](c2cc(F)ccc2Cl)c2c(NC(=O)N3CCc4ccccc43)cc(-c3ccc4ncnn4c3)cc21` (stereo in doubt) [Compound I-1715], the results for the IC50 in “cells” and at H1047R PIK3CA enzyme were under 1000 nM and at most 100 nM, respectively.

As for `N#CCCc1cc(NC(=O)c2cc(F)cc(C(F)(F)F)c2)c2c(c1)C(=O)N[C@H]2c1cc(F)ccc1Cl` (stereo in doubt) [Compound I-2169], the IC50 was under 1000 nM in the experiment “cells” and at most 100 nM on H1047R PIK3CA enzyme.

Regarding `O=C1N[C@@H](c2cc(F)ccc2Cl)c2c(NC(=O)N3C[C@@H](O)c4ccc(F)cc43)cccc21` (stereo in doubt) [Compound I-2171], the IC50 in the experiment “cells” is under 1000 nM; at H1047R PIK3CA enzyme it was at most 100 nM.

Regarding `Cc1ccccc1C1NC(=O)c2cccc(NC(=O)c3csc4ccccc34)c21` (centres unmarked) [Compound I-1, N-(1-Oxo-3-(o-tolyl)isoindolin-4-yl)benzo[b]thiophene-3-carboxamide], the IC50 in “cells” is 1000 to 5000 nM; on H1047R PIK3CA enzyme, 100 to 500 nM.

`Cc1ccccc1[C@@H]1NC(=O)c2cccc(NC(=O)c3csc4ccccc34)c21` [Compound I-5]: the figures for the IC50 in “cells” and against H1047R PIK3CA enzyme were 1000 to 5000 nM and at most 100 nM, respectively.

(Values after patent publication US12581252B2, “Substituted pyrrolo[3,4-b]pyridines as PI3K-α inhibitors” (Relay Therapeutics, Inc., priority 2020, dated 2026).)
